{"source": "patent US20110112032A1", "about": "“Regulation of Brain Natriuretic Peptide and Catecholamines for the Treatment of Cardiovascular Diseases” (priority 2005, published 2011)", "key": {"[1]": {"tested_on": "rat myocardial infarct model", "type": "in vivo"}, "[2]": {"target": "norepinephrine transporter (Rattus norvegicus, UniProt Q63380)", "sequence (Q63380 1-617)": "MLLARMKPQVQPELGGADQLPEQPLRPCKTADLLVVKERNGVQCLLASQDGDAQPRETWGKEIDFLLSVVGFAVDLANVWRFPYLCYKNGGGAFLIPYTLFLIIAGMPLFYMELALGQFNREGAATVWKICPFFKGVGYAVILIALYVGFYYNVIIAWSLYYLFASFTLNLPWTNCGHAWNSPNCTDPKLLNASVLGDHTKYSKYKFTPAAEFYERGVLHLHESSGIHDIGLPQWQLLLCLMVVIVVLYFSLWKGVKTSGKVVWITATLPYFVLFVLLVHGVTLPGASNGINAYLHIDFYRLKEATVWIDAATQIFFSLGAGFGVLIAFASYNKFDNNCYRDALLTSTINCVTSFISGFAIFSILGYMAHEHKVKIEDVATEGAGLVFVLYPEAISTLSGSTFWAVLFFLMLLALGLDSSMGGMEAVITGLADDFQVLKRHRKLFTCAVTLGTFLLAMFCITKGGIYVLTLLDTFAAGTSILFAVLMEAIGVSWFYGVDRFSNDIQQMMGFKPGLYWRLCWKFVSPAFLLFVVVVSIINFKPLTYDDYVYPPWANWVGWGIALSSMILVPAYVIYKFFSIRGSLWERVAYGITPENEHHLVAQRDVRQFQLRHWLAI", "type": "cell-based"}, "[3]": {"settings": "animal group that received labetalol"}}, "note": "“And” between values parts separate entries of the source, which are not always exact repeats. Equal entries are not always repeated. Where two headings read alike, the source gives them in different places."}
{"compound": "CC(CCc1ccccc1)NCC(O)c1ccc(O)c(C(N)=O)c1", "note": "(stereo not shown) [Labetalol, labetalol]", "values": [{"measurement": "Infarct Size", "setting": "[1]; N = 6, DPDPE 200 ng/kg iv 30 min before occlusion, labetalol 2 mg/kg iv", "value": "16.2 ± 1.7 % of LV"}, {"measurement": "change in heart rate", "setting": "[1]; [3]", "value": "mild increase"}, {"measurement": "change in mean blood pressure compared to the other groups", "setting": "[1]; [3]", "value": "small reduction"}, {"measurement": "HR", "setting": "[1]; rat, in vivo", "value": "213 ± 1 bpm and 223 ± 1 bpm and 244 ± 2 bpm and 235 ± 2 bpm"}, {"measurement": "Mean BP", "setting": "[1]; rat, in vivo", "value": "125 ± 2 mmHg and 100 ± 2 mmHg and 78 ± 4 mmHg and 81 ± 4 mmHg"}]}
{"compound": "CNCCC(Oc1ccccc1OC)c1ccccc1", "note": "(stereo not shown) [nisoxetine]", "values": [{"measurement": "reduction of [3H]norepinephrine uptake", "setting": "[2]", "value": "36±4", "unit": "%"}]}
{"compound": "NC[C@H](O)c1ccc(O)c(O)c1", "note": "[norepinephrine]", "values": [{"measurement": "inhibition of [3H] norepinephrine uptake", "setting": "[2]", "value": 20, "unit": "%"}, {"measurement": "reduction of [3H]norepinephrine uptake", "setting": "[2]", "value": "20±5", "unit": "%"}]}
{"compound": "[D-Pen^25]-enkephalin [DPDPE]", "values": [{"measurement": "HR", "setting": "[1]; rat, in vivo", "value": "215 ± 1 bpm and 218 ± 1 bpm and 232 ± 1 bpm and 216 ± 1 bpm"}, {"measurement": "Infarct Size", "setting": "[1]; rat, in vivo", "value": "6.6 ± 1.4 % of LV"}, {"measurement": "Mean BP", "setting": "[1]; rat, in vivo", "value": "125 ± 1 mmHg and 116 ± 1 mmHg and 89 ± 2 mmHg and 96 ± 1 mmHg"}, {"measurement": "infarct-size-limiting effect in rats pretreated with labetalol", "setting": "[1]; rat, in vivo", "value": "nearly abolished"}, {"measurement": "reduction of LV infarct size compared to control", "setting": "[1]; rat, in vivo, iv", "value": 53, "unit": "%"}]}
